Among the data in patent US11180494B2, “Substituted amino acids as integrin inhibitors” (Pliant Therapeutics, Inc., priority 2018, dated 2021) are IC50 values, retold here.

SMILES strings stand for the structures.

What is called IC50 is the concentration at which inhibition is half-maximal.

Sequence of human integrin αvβ6 (P06756 31-992): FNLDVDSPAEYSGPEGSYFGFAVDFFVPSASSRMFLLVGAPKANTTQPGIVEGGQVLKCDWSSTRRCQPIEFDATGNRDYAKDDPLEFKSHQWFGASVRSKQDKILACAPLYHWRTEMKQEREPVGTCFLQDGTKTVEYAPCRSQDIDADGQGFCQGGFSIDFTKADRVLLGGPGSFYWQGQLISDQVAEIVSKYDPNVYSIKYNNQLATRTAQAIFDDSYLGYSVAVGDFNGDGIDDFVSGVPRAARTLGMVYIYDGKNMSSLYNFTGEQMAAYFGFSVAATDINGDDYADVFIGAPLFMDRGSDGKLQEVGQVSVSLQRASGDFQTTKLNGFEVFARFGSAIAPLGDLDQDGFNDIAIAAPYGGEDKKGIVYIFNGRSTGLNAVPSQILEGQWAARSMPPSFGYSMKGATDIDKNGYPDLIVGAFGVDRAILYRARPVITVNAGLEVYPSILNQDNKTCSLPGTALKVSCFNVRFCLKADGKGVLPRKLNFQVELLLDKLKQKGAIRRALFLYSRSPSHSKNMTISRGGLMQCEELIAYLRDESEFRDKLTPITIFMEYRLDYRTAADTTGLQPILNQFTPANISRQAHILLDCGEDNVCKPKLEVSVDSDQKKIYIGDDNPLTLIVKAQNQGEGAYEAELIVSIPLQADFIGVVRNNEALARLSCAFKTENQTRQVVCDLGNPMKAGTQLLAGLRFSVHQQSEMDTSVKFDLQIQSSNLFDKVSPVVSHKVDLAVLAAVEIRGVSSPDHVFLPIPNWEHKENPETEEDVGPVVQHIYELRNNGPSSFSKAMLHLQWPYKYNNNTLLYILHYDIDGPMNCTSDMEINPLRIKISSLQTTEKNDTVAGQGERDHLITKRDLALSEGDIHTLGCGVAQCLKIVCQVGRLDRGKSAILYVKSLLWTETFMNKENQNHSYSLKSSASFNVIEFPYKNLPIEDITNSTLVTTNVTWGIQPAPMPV
Sequence of human integrin αvβ6 (P18564 22-707): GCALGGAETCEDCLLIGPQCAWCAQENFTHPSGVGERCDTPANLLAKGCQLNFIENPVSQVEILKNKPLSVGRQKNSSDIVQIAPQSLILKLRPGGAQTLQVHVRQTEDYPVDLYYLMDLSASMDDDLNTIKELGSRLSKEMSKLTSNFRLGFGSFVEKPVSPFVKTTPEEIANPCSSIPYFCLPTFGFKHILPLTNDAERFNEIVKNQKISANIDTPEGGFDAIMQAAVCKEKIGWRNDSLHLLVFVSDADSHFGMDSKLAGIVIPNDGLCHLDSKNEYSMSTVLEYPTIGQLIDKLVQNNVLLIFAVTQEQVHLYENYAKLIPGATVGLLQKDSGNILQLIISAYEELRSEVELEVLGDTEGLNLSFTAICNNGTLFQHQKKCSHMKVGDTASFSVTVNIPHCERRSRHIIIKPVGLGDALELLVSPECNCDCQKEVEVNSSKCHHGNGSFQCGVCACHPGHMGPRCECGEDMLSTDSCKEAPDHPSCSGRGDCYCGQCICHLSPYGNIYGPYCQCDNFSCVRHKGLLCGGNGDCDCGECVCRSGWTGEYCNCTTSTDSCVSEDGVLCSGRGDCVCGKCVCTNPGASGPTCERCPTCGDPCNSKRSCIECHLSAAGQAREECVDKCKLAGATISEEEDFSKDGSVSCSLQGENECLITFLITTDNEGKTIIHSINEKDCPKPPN

The assay concerns the target human integrin αvβ6 (Homo sapiens (Human), UniProt P06756+P18564). As to the kind of experiment: Proximity-based integrin receptor binding assay (ALPHASCREEN) for inhibitor potency. The following applies: inhibition of binding of TGF-b1 LAP to human integrin αvβ6; values given in ranges. Here is the method: To gauge the potency of inhibitors of binding to human integrin αvβ6, inhibitor compounds and integrin were incubated together with TGF-b1 LAP and biotinylated anti-LAP antibody plus acceptor and donor beads, following the manufacture's recommendations. The donor beads were coated with streptavidin. […] All incubations occurred at room temperatures in 50 mM Tris-HCl, pH 7.5, 0.1% BSA supplemented with 1 mM each CaCl2 and MgCl2.
The order of reagent addition was as follows:
1. Alpha-v-beta-6 integrin, test inhibitor compound, LAP, biotinylated anti-LAP antibody and acceptor beads were all added together.
2. After 2 hours, donor beads were added. After another 30 minute incubation, samples were then read.
Integrin binding was evaluated by exciting donor beads at 680 nm, and measuring the fluorescent signal produced, between 520-620 nm, using a Biotek Instruments (Winooski, Vt., USA) SynergyNeo2 multimode plate reader. […] Data analysis for IC50 determinations was carried out by nonlinear four parameter logistic regression analysis using Dotmatics ELN Software (Core Informatics Inc., Branford, Conn.).
With `O=C(NC(CCOCCCCc1ccc2c(n1)NCCC2)C(=O)O)c1cccc(F)c1Cl` (racemic) [Compound 1, N-(2-chloro-3-fluorobenzoyl)-O-(4-(5,6,7,8-tetrahydro-1,8-naphthyridin-2-yl)butyl)homoserine], the IC50 is under 50 nM.
To `O=C(N[C@@H](CCO[C@H]1C[C@H](CCc2ccc3c(n2)NCCC3)C1)C(=O)O)c1ccnc2cc[nH]c12` (relative stereo) [Compound 170, N-(1H-pyrrolo[3,2-b]pyridine-7-carbonyl)-O-(trans-3-(2-(5,6,7,8-tetrahydro-1,8-naphthyridin-2-yl)ethyl)cyclobutyl)homoserine] belongs under 50 nM; to `O=C(N[C@@H](CCO[C@H]1C[C@H](CCc2ccc3c(n2)NCCC3)C1)C(=O)O)C1CCCc2cn[nH]c21` (relative stereo) [Compound 177, O-(trans-3-(2-(5,6,7,8-tetrahydro-1,8-naphthyridin-2-yl)ethyl)cyclobutyl)-N-(4,5,6,7-tetrahydro-1H-indazole-7-carbonyl)homoserine], 50 to 250 nM; to `O=C(N[C@@H](CCO[C@H]1C[C@H](CCc2ccc3c(n2)NCCC3)C1)C(=O)O)C1CCc2ccccc21` (single isomer, unassigned) [95*,†], over 1000 nM.
In the case of `O=C(N[C@@H](CCO[C@H]1C[C@H](CCc2ccc3c(n2)NCCC3)C1)C(=O)O)C1CCc2ccccc21` (single isomer, unassigned) [96*,††], the IC50 lay within 250 to 1000 nM.
Consider `O=C(N[C@@H](CCO[C@H]1C[C@H](CCc2ccc3c(n2)NCCC3)C1)C(=O)O)C1CCc2ccccc21` (single isomer, unassigned) [110**,†], for which the IC50 was in the range of 50 to 250 nM.
Then `O=C(N[C@@H](CCO[C@H]1C[C@H](CCc2ccc3c(n2)NCCC3)C1)C(=O)O)C1CCc2ccccc21` (single isomer, unassigned) [111**,††], with under 50 nM.
As to `CC(CO[C@H]1C[C@H](CCc2ccc3c(n2)NCCC3)C1)C(NC(=O)OC(C)(C)C)C(=O)O` (single isomer, unassigned) [Example 145A, 2-((tert-butoxycarbonyl)amino)-3-methyl-4-(trans-3-(2-(5,6,7,8-tetrahydro-1,8-naphthyridin-2-yl)ethyl)cyclobutoxy)butanoic Acid], the IC50 was in the range of 250 to 1000 nM.
Turning to `CC(CO[C@H]1C[C@H](CCc2ccc3c(n2)NCCC3)C1)C(NC(=O)OC(C)(C)C)C(=O)O` (single isomer, unassigned) [Example 145B, 2-((tert-butoxycarbonyl)amino)-3-methyl-4-(trans-3-(2-(5,6,7,8-tetrahydro-1,8-naphthyridin-2-yl)ethyl)cyclobutoxy)butanoic Acid], the IC50 was in the range of 50 to 250 nM.
To `CCC(CC(F)F)C(=O)NC(CCO[C@H]1C[C@H](CCc2ccc3c(n2)NCCC3)C1)C(=O)O` (single isomer, unassigned) [Example 162b, N-(-2-ethyl-4,4-difluorobutanoyl)-O-(trans-3-(2-(5,6,7,8-tetrahydro-1,8-naphthyridin-2-yl)ethyl)cyclobutyl)homoserine] belongs under 50 nM.
Take `Cn1ncc2c(C(=O)NC(CCOCCCCc3ccc4c(n3)NCCC4)C(=O)O)cccc21` (stereo not shown) [Compound 4, N-(1-methyl-1H-indazole-4-carbonyl)-O-(4-(5,6,7,8-tetrahydro-1,8-naphthyridin-2-yl)butyl)homoserine]: the IC50 is over 1000 nM.
As to `CCC(CC)C(=O)NC(CCOCCCCc1ccc2c(n1)NCCC2)C(=O)O` (stereo not shown) [Compound 5, N-(2-ethylbutanoyl)-O-(4-(5,6,7,8-tetrahydro-1,8-naphthyridin-2-yl)butyl)homoserine], the IC50 lay in the range of 50 to 250 nM.
In the case of `O=C(NC(CCOCCCCc1ccc2c(n1)NCCC2)C(=O)O)c1ccccc1` (stereo not shown) [Compound 6, N-benzoyl-O-(4-(5,6,7,8-tetrahydro-1,8-naphthyridin-2-yl)butyl)homoserine], the IC50 is 250 to 1000 nM.
As for `O=C(NC(CCOCCCCc1ccc2c(n1)NCCC2)C(=O)O)C1CCC(F)(F)CC1` (stereo not shown) [Compound 7, N-(4,4-difluorocyclohexane-1-carbonyl)-O-(4-(5,6,7,8-tetrahydro-1,8-naphthyridin-2-yl)butyl)homoserine], the half-inhibitory concentration (IC50) was in the range of 50 to 250 nM.
Take `CCCCC(=O)NC(CCOCCCCc1ccc2c(n1)NCCC2)C(=O)O` (stereo not shown) [Compound 8, N-pentanoyl-O-(4-(5,6,7,8-tetrahydro-1,8-naphthyridin-2-yl)butyl)homoserine]: the IC50 is 250 to 1000 nM.
Regarding `O=C(NC(CCOCCCCc1ccc2c(n1)NCCC2)C(=O)O)c1cc(F)cc(C(F)(F)F)c1` (stereo not shown) [Compound 9, N-(3-fluoro-5-(trifluoromethyl)benzoyl)-O-(4-(5,6,7,8-tetrahydro-1,8-naphthyridin-2-yl)butyl)homoserine], the IC50 was in the range of 50 to 250 nM.
Take `O=C(NC(CCOC1CC(CCc2ccc3c(n2)NCCC3)C1)C(=O)O)c1cc(F)cc(C(F)(F)F)c1` (stereo not shown) [Compound 10, N-(3-fluoro-5-(trifluoromethyl)benzoyl)-O-(3-(2-(5,6,7,8-tetrahydro-1,8-naphthyridin-2-yl)ethyl)cyclobutyl)homoserine]: the IC50 was 50 to 250 nM.
To `CCCCC(=O)NC(CCOC1CC(CCc2ccc3c(n2)NCCC3)C1)C(=O)O` (stereo not shown) [Compound 11, N-pentanoyl-O-(3-(2-(5,6,7,8-tetrahydro-1,8-naphthyridin-2-yl)ethyl)cyclobutyl)homoserine] belongs 50 to 250 nM; to `CC(C)(C)OC(=O)NC(CCOCCCCc1ccc2c(n1)NCCC2)C(=O)O` (stereo not shown) [Compound 13, N-(tert-butoxycarbonyl)-O-(4-(5,6,7,8-tetrahydro-1,8-naphthyridin-2-yl)butyl)homoserine], 250 to 1000 nM.
Turning to `O=C(N[C@@H](CCO[C@H]1C[C@@H](CCc2ccc3c(n2)NCCC3)C1)C(=O)O)c1cccc(F)c1Cl` [Compound 14, N-(2-chloro-3-fluorobenzoyl)-O-(cis-3-(2-(5,6,7,8-tetrahydro-1,8-naphthyridin-2-yl)ethyl)cyclobutyl)homoserine], the IC50 was under 50 nM.
With `O=C(N[C@@H](CCO[C@H]1C[C@@H](CCc2ccc3c(n2)NCCC3)C1)C(=O)O)c1ccc(F)cc1` [Compound 15, N-(4-fluorobenzoyl)-O-(cis-3-(2-(5,6,7,8-tetrahydro-1,8-naphthyridin-2-yl)ethyl)cyclobutyl)homoserine], the IC50 was under 50 nM.
Regarding `O=C(N[C@@H](CCO[C@H]1C[C@H](CCc2ccc3c(n2)NCCC3)C1)C(=O)O)c1ccc(F)cc1` [Compound 16, N-(4-fluorobenzoyl)-O-(trans-3-(2-(5,6,7,8-tetrahydro-1,8-naphthyridin-2-yl)ethyl)cyclobutyl)homoserine], the IC50 is under 50 nM.
On to `O=C(N[C@@H](CCO[C@H]1C[C@H](CCc2ccc3c(n2)NCCC3)C1)C(=O)O)c1ccc(Cl)cc1` [Compound 17, N-(4-chlorobenzoyl)-O-(trans-3-(2-(5,6,7,8-tetrahydro-1,8-naphthyridin-2-yl)ethyl)cyclobutyl)homoserine], for which the IC50 is under 50 nM.
Consider `CC(C)(C)OC(=O)N[C@@H](CCO[C@H]1C[C@@H](CCc2ccc3c(n2)NCCC3)C1)C(=O)O` [Compound 18, N-(tert-butoxycarbonyl)-O-(cis-3-(2-(5,6,7,8-tetrahydro-1,8-naphthyridin-2-yl)ethyl)cyclobutyl)homoserine], for which the IC50 was in the range of 50 to 250 nM.
As for `O=C(N[C@@H](CCO[C@H]1C[C@H](CCc2ccc3c(n2)NCCC3)C1)C(=O)O)c1cccc(F)c1` [Compound 19, N-(3-fluorobenzoyl)-O-(trans-3-(2-(5,6,7,8-tetrahydro-1,8-naphthyridin-2-yl)ethyl)cyclobutyl)homoserine], the IC50 is under 50 nM.
With `O=C(N[C@@H](CCO[C@H]1C[C@H](CCc2ccc3c(n2)NCCC3)C1)C(=O)O)c1cccc(Cl)c1` [Compound 20, N-(3-chlorobenzoyl)-O-(trans-3-(2-(5,6,7,8-tetrahydro-1,8-naphthyridin-2-yl)ethyl)cyclobutyl)homoserine], the IC50 was under 50 nM.
To `O=C(N[C@@H](CCO[C@H]1C[C@H](CCc2ccc3c(n2)NCCC3)C1)C(=O)O)c1ccccc1Cl` [Compound 21, N-(2-chlorobenzoyl)-O-(trans-3-(2-(5,6,7,8-tetrahydro-1,8-naphthyridin-2-yl)ethyl)cyclobutyl)homoserine] belongs under 50 nM; to `O=C(N[C@@H](CCO[C@H]1C[C@H](CCc2ccc3c(n2)NCCC3)C1)C(=O)O)c1ccccc1F` [Compound 22, N-(2-fluorobenzoyl)-O-(trans-3-(2-(5,6,7,8-tetrahydro-1,8-naphthyridin-2-yl)ethyl)cyclobutyl)homoserine], under 50 nM; to `O=C(N[C@@H](CCO[C@H]1C[C@H](CCc2ccc3c(n2)NCCC3)C1)C(=O)O)c1cccc(F)c1F` [Compound 23, N-(2,3-difluorobenzoyl)-O-(trans-3-(2-(5,6,7,8-tetrahydro-1,8-naphthyridin-2-yl)ethyl)cyclobutyl)homoserine], under 50 nM.
`O=C(N[C@@H](CCO[C@H]1C[C@H](CCc2ccc3c(n2)NCCC3)C1)C(=O)O)c1ccc(F)cc1F` [Compound 24, N-(2,4-difluorobenzoyl)-O-(trans-3-(2-(5,6,7,8-tetrahydro-1,8-naphthyridin-2-yl)ethyl)cyclobutyl)homoserine]: the IC50 is under 50 nM.
For `O=C(N[C@@H](CCO[C@H]1C[C@H](CCc2ccc3c(n2)NCCC3)C1)C(=O)O)c1ccc(F)cc1Cl` [Compound 25, N-(2-chloro-4-fluorobenzoyl)-O-(trans-3-(2-(5,6,7,8-tetrahydro-1,8-naphthyridin-2-yl)ethyl)cyclobutyl)homoserine], the IC50 was under 50 nM.
